According to PMC11960969, “Mdga2 deficiency leads to an aberrant activation of BDNF/TrkB signaling that underlies autism-relevant synaptic and behavioral changes in mice” (PLOS Biology, 2025):

Experiments:
[1] = tested on: TrkB signaling and synaptic proteins (pTrkB, pAkt, pmTOR, NLGN1, PSD-95, PSD-93); assay: Immunoblotting of TrkB signaling and synaptic proteins in primary neurons treated with ANA-12; type: cell-based, mouse; conditions: primary neurons from Mdga2+/- and Mdga2-/- mice, 10 μM, 24 h, n = 3
mice = assay: Open field test; type: in vivo, mouse
Method: Six- to eight-week-old male mice were subjected to various behavioral tests. Mice were allowed to acclimatize in the testing room for 1 h prior to each test. Data were recorded and analyzed using Smart 3.0 video tracking system (Panlab, Harvard Apparatus).
Mice were gently placed in the center of an open field apparatus (40 × 40 × 40 cm), and allowed for a 10-min period of free movement. Total distance traveled and time spent in center were analyzed.

[2] = tested on: AMPAR and NMDAR (evoked EPSCs); assay: Evoked AMPAR- and NMDAR-mediated EPSCs and AMPAR/NMDAR ratio in hippocampal slices; set-up: species or system mouse

For `O=C(Nc1ccccc1C(=O)NC1CCCCNC1=O)c1cc2ccccc2s1` (centres unmarked) [ANA-12, reference compound], the “increased levels of pTrkB, pAkt, pmTOR, NLGN1, PSD-95, and PSD-93” value [1] was “effectively reversed increased levels of pTrkB, pAkt, pmTOR, NLGN1, PSD-95, and PSD-93”, the locomotor activity (mice; Mdga2+/- mice, chronic 0.5 mg/kg i.p. twice per week 3 weeks, Test 1 Interaction F(1,56) = 0.2753, p = 0.6019, Test 2 F(1,56) = 0.2774, p = 0.6005) was “did not affect the locomotor activity” and the locomotor activity (mice; acute: 0.5 mg/kg i.p. once daily 3 days, Test 1 Interaction F(1,56) = 0.3413, p = 0.5614, Test 2 F(1,56) = 0.1904, p = 0.6643) was “did not affect locomotor activity”. For the same molecule, the “elevated AMPAR/NMDAR response ratios” value [2] was “effectively attenuated upon chronic ANA-12 treatment” and the “elevated evoked AMPAR-mediated EPSCs” value ([2]; Mdga2+/- mice, chronic 0.5 mg/kg i.p., n = 20-21 cells from 3 mice, Fig 5J) was “effectively attenuated upon chronic ANA-12 treatment”.
